Experimental data from the supplement of paper PMC8967900.

Key:
Assay in all cases: selective drug sensitivity score (sDSS, relative to normal bone marrow) (sDSS (score)); higher = more potent and effective on the cell line relative to normal bone marrow cells
Conditions in all cases: 72 h
[1] = tested on: P12-ICHIKAWA
[2] = tested on: COG-LL-355h
[3] = tested on: KOPN-8
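Further: ALL cell lines in 384-well plates, five doses spanning 10,000-fold, each plate scaled between vehicle and 100 µmol/L benzalkonium chloride controls, sDSS an adapted area-under-curve metric.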

With `COC12C(COC(N)=O)C3=C(C(=O)C(C)=C(N)C3=O)N1CC1NC12` (stereo in doubt) [Mitomycin_C] (top concentration 10000 nM) the “selective drug sensitivity score” value [1] was -2.86, the “selective drug sensitivity score” value [2] was 0.44 and the “selective drug sensitivity score” value [3] was 4.24.

With `Cc1c(-c2c(-c3ccc(F)o3)sc3ncnc(O[C@H](Cc4ccccc4OCc4ccnn4CC(F)(F)F)C(=O)O)c23)ccc(OCCN2CCN(C)CC2)c1Cl` (top concentration 1000 nM) the “selective drug sensitivity score” value [1] was -5.84, the “selective drug sensitivity score” value [2] was 4.66 and the “selective drug sensitivity score” value [3] was 13.4.

With `Cc1ncc(Cl)cc1NCc1ccc(C(=O)N[C@@H](CC2CCCC2)C(=O)NC2CC2)s1` (top concentration 5000 nM) the “selective drug sensitivity score” value [1] was -0.94, the “selective drug sensitivity score” value [2] was 2.26 and the “selective drug sensitivity score” value [3] was 2.96.

`CCn1c(-c2nonc2N)nc2c(C#CC(C)(C)O)ncc(OC[C@H]3CCCNC3)c21` (top concentration 10000 nM) was tested, and the “selective drug sensitivity score” value [1] was 4.68, the “selective drug sensitivity score” value [2] was 8.98 and the “selective drug sensitivity score” value [3] was 7.08.

For `CN(c1ncccc1CNc1nc(Nc2ccc3c(c2)CC(=O)N3)ncc1C(F)(F)F)S(C)(=O)=O` (top concentration 10000 nM), the “selective drug sensitivity score” value [1] was -0.08, the “selective drug sensitivity score” value [2] was 0.82 and the “selective drug sensitivity score” value [3] was 1.02.

With `CNc1ncc2cc(-c3cc(NC(=O)NCCC(C)(C)C)c(F)cc3C)c(C)nc2n1` (top concentration 10000 nM) the “selective drug sensitivity score” value [1] was 11, the “selective drug sensitivity score” value [2] was 9.16 and the “selective drug sensitivity score” value [3] was 21.3.

`C[C@@]1(C(=O)Nc2ccc(F)nc2)CCCN1c1nc(Nc2cc(C3CC3)n[nH]2)c2cccn2n1` (top concentration 10000 nM) was tested, and the “selective drug sensitivity score” value [1] was 11.3, the “selective drug sensitivity score” value [2] was 12.1 and the “selective drug sensitivity score” value [3] was 4.68.

`Cc1nc(Nc2n[nH]c3c2CN(C(=O)N[C@H](CN(C)C)c2ccccc2)C3(C)C)c2sccc2n1` (top concentration 10000 nM) was tested, and the “selective drug sensitivity score” value [1] was 3.68, the “selective drug sensitivity score” value [2] was 3.98 and the “selective drug sensitivity score” value [3] was 18.3.

For `Cn1cc(-c2[nH]c3cc(NC(=O)[C@H](N)C4CCCCC4)cc4c3c2C=NNC4=O)cn1` (top concentration 10000 nM), the “selective drug sensitivity score” value [1] was 7.38, the “selective drug sensitivity score” value [2] was 1.98 and the “selective drug sensitivity score” value [3] was 7.38.

With `Cn1cc(-c2ccc(F)c(C(F)(F)F)c2)nc1C1CCN(c2ncnc3[nH]ncc23)CC1` (top concentration 10000 nM) the “selective drug sensitivity score” value [1] was -0.14, the “selective drug sensitivity score” value [2] was -0.14 and the “selective drug sensitivity score” value [3] was 9.76.

With `O=C(Nc1ccc2[nH]nc(-c3ccncc3)c2c1)[C@@H]1CCN(CC(=O)N2CCN(c3ccc(-c4ncccn4)cc3)CC2)C1` (top concentration 10000 nM) the “selective drug sensitivity score” value [1] was 1.06, the “selective drug sensitivity score” value [2] was 6.26 and the “selective drug sensitivity score” value [3] was 12.9.

For `CC(C)(C)c1cc(NC(=O)Nc2ccc(Oc3ccnc4[nH]c(=O)cnc34)cc2F)n(-c2ccccc2)n1` (top concentration 25000 nM), the “selective drug sensitivity score” value [1] was -4.58, the “selective drug sensitivity score” value [2] was 1.92 and the “selective drug sensitivity score” value [3] was 2.22.

In the case of `Nc1ncnc2c1nc(N)n2[C@@H]1O[C@H](CO)[C@@H](O)[C@H]1O` [8-amino-adenosine] (top concentration 50000 nM), the “selective drug sensitivity score” value [1] is reported as 0.38, the “selective drug sensitivity score” value [2] is reported as -1.42 and the “selective drug sensitivity score” value [3] is reported as 7.48.

In the case of `CC(C)[C@@H](CS(=O)(=O)C(C)C)N1C(=O)[C@@](C)(CC(=O)O)C[C@H](c2cccc(Cl)c2)[C@H]1c1ccc(Cl)cc1` [AMG-232] (top concentration 10000 nM), the “selective drug sensitivity score” value [1] is reported as -8.24, the “selective drug sensitivity score” value [2] is reported as 8.76 and the “selective drug sensitivity score” value [3] is reported as 10.4.

`CC(C)[C@H](C(=O)Nc1ccc(C(=O)NO)cc1)c1ccccc1` [AR-42] (top concentration 10000 nM) was tested, and the “selective drug sensitivity score” value [1] was 8.28, the “selective drug sensitivity score” value [2] was 6.68 and the “selective drug sensitivity score” value [3] was 10.6.

For `O=C(Nc1c[nH]nc1-c1nc2ccc(CN3CCOCC3)cc2[nH]1)NC1CC1` [AT9283] (top concentration 1000 nM), the “selective drug sensitivity score” value [1] was 13, the “selective drug sensitivity score” value [2] was 6.22 and the “selective drug sensitivity score” value [3] was 10.3.

With `CCN(CCO)CCCOc1ccc2c(Nc3cc(CC(=O)Nc4cccc(F)c4)[nH]n3)ncnc2c1` [AZD1152-HQPA] (top concentration 1000 nM) the “selective drug sensitivity score” value [1] was 19, the “selective drug sensitivity score” value [2] was 8.84 and the “selective drug sensitivity score” value [3] was 12.1.

For `Cc1[nH]nc(C(F)(F)F)c1Cc1sc2c(c1C(=O)N1C[C@](C)(O)CO1)c(=O)n(C)c(=O)n2C(C)C` [AZD3965] (top concentration 1000 nM), the “selective drug sensitivity score” value [1] was 0, the “selective drug sensitivity score” value [2] was 0 and the “selective drug sensitivity score” value [3] was 0.

With `C[C@@H]1COCCN1c1cc(C2([S@](C)(=N)=O)CC2)nc(-c2cc[nH]c3nccc2-3)n1` [AZD6738] (top concentration 25000 nM) the “selective drug sensitivity score” value [1] was 9.98, the “selective drug sensitivity score” value [2] was 6.18 and the “selective drug sensitivity score” value [3] was 15.5.

`NC1(C(=O)N[C@@H](CCO)c2ccc(Cl)cc2)CCN(c2ncnc3[nH]ccc23)CC1` [AZD-5363] (top concentration 10000 nM) was tested, and the “selective drug sensitivity score” value [1] was 3.52, the “selective drug sensitivity score” value [2] was 5.92 and the “selective drug sensitivity score” value [3] was 6.72.

`C[C@@H](Nc1cc(F)cc(F)c1)c1cc(C(=O)N(C)C)cc2c(=O)cc(N3CCOCC3)oc12` [AZD-8186] (top concentration 1000 nM) was tested, and the “selective drug sensitivity score” value [1] was -0.26, the “selective drug sensitivity score” value [2] was 5.04 and the “selective drug sensitivity score” value [3] was 3.44.

For `COc1cccc2c1C(=O)c1c(O)c3c(c(O)c1C2=O)C[C@@](O)(/C(CO)=N/NC(=O)CCCCCN1C(=O)C=CC1=O)C[C@@H]3O[C@H]1C[C@H](N)[C@H](O)[C@H](C)O1` [Aldoxorubicin] (top concentration 1000 nM), the “selective drug sensitivity score” value [1] was 5.04, the “selective drug sensitivity score” value [2] was 4.44 and the “selective drug sensitivity score” value [3] was 14.2.

For `COc1cc(Nc2ncc3c(n2)-c2ccc(Cl)cc2C(c2c(F)cccc2OC)=NC3)ccc1C(=O)O` [Alisertib] (top concentration 10000 nM), the “selective drug sensitivity score” value [1] was 22.6, the “selective drug sensitivity score” value [2] was 7.98 and the “selective drug sensitivity score” value [3] was 21.3.

In the case of `Cc1nc(NC(=O)N2CCC[C@H]2C(N)=O)sc1-c1ccnc(C(C)(C)C(F)(F)F)c1` [Alpelisib] (top concentration 2500 nM), the “selective drug sensitivity score” value [1] is reported as -0.32, the “selective drug sensitivity score” value [2] is reported as 5.98 and the “selective drug sensitivity score” value [3] is reported as 5.38.

`CCN(CC)CCNC(=O)c1c(C)[nH]c(/C=C2\C(=O)Nc3ccc(-c4csc(-c5ccccc5)n4)cc32)c1C` [Amcasertib] (top concentration 10000 nM) was tested, and the “selective drug sensitivity score” value [1] was 0, the “selective drug sensitivity score” value [2] was 6.8 and the “selective drug sensitivity score” value [3] was -1.1.

In the case of `COc1c(C)cnc(Cn2cnc3c(Cl)nc(N)nc32)c1C` [BIIB021] (top concentration 10000 nM), the “selective drug sensitivity score” value [1] is reported as 2.28, the “selective drug sensitivity score” value [2] is reported as 0.38 and the “selective drug sensitivity score” value [3] is reported as 12.

With `O=C(/C=C/c1cccc(S(=O)(=O)Nc2ccccc2)c1)NO` [Belinostat] (top concentration 10000 nM) the “selective drug sensitivity score” value [1] was 8.6, the “selective drug sensitivity score” value [2] was 10.2 and the “selective drug sensitivity score” value [3] was 17.8.

For `Nc1cc(C(F)(F)F)c(-c2cc(N3CCOCC3)nc(N3CCOCC3)n2)cn1` [Buparlisib] (top concentration 10000 nM), the “selective drug sensitivity score” value [1] was 3.28, the “selective drug sensitivity score” value [2] was 5.68 and the “selective drug sensitivity score” value [3] was 7.28.

For `CCS(=O)(=O)N1CCN(c2ccc(Nc3ncc(C(N)=O)c(NC4CC4)n3)cc2)CC1` [Cerdulatinib] (top concentration 10000 nM), the “selective drug sensitivity score” value [1] was -4.46, the “selective drug sensitivity score” value [2] was -7.46 and the “selective drug sensitivity score” value [3] was 3.14.

With `CC(C)[C@H]1C(=O)N[C@@H](CCCNC(=N)N)C(=O)NCC(=O)N[C@@H](CC(=O)O)C(=O)N[C@H](Cc2ccccc2)C(=O)N1C` [Cilengitide] (top concentration 10000 nM) the “selective drug sensitivity score” value [1] was 0, the “selective drug sensitivity score” value [2] was 0 and the “selective drug sensitivity score” value [3] was 13.8.

In the case of `CC(C)(C)c1nc(-c2cccc(NS(=O)(=O)c3c(F)cccc3F)c2F)c(-c2ccnc(N)n2)s1` [Dabrafenib] (top concentration 2500 nM), the “selective drug sensitivity score” value [1] is reported as 1.18, the “selective drug sensitivity score” value [2] is reported as 0.38 and the “selective drug sensitivity score” value [3] is reported as 8.48.

`C[C@H]1O[C@@H](O[C@H]2[C@@H](O)C[C@H](O[C@H]3[C@@H](O)C[C@H](O[C@H]4CC[C@@]5(C)[C@H](CC[C@@H]6[C@@H]5C[C@@H](O)[C@]5(C)[C@@H](C7=CC(=O)OC7)CC[C@]65O)C4)O[C@@H]3C)O[C@@H]2C)C[C@H](O)[C@@H]1O` [Digoxin] (top concentration 1000 nM) was tested, and the “selective drug sensitivity score” value [1] was 8.2, the “selective drug sensitivity score” value [2] was 8.7 and the “selective drug sensitivity score” value [3] was 12.9.

With `C[C@H](Nc1ncnc2nc[nH]c12)c1cc2cccc(Cl)c2c(=O)n1-c1ccccc1` [Duvelisib] (top concentration 500 nM) the “selective drug sensitivity score” value [1] was -0.44, the “selective drug sensitivity score” value [2] was 4.96 and the “selective drug sensitivity score” value [3] was 0.16.

For `NC(=O)/C(=C/n1cnc(-c2cc(C(F)(F)F)cc(C(F)(F)F)c2)n1)c1cncnc1` [Eltanexor] (top concentration 10000 nM), the “selective drug sensitivity score” value [1] was 7.96, the “selective drug sensitivity score” value [2] was 14.5 and the “selective drug sensitivity score” value [3] was 14.2.

`COC(=O)N[C@@H](C)CNc1nccc(-c2cn(C(C)C)nc2-c2cc(Cl)cc(NS(C)(=O)=O)c2F)n1` [Encorafenib] (top concentration 1000 nM) was tested, and the “selective drug sensitivity score” value [1] was 1.7, the “selective drug sensitivity score” value [2] was 1.4 and the “selective drug sensitivity score” value [3] was 16.2.
